Data as given in publication PMC12291850, “Morin Flavonoid Interaction with Albumin and Its Nanoparticle Conjugation: An Efficient Antioxidant Vehicle for Nutraceuticals” (Antioxidants, 2025).
Each block holds one compound with its values, some of them ahead of it.

Assays:
[1] = Encapsulation efficiency in BSA nanoparticles (desolvation, HPLC of supernatant); format: physicochemical; settings: unchanged when co-loaded with morin
[2] = cited from earlier work
[3] = target: T1, bovine serum albumin (BSA) (Bos taurus, UniProt P02769); experiment: Fluorescence quenching of BSA by flavonoids (Stern–Volmer, binding equation, van't Hoff); settings: for Stern–Volmer quenching constant (Ksv): excitation 295 nm; for ΔG°: morin: 293–310 K
T1 construct: purchased Merck (Darmstadt, Germany)
Protocol: Fluorescence quenching spectroscopy was employed to investigate the interaction between bovine serum albumin (BSA) and selected flavonoids, including morin. All measurements were performed using a spectrofluorometer under controlled temperature conditions (25 °C).
To quantify the quenching effect upon encapsulation, the Stern–Volmer equation was applied (Equation (1)):F0/F = 1 + Ksv [Q](1) where F0 and F are the fluorescence intensities of BSA in the absence and presence of quencher (flavonoid), respectively, Ksv is the Stern–Volmer quenching constant, and [Q] is flavonoid concentration.
The binding constant (Ka) and the number of binding sites (n) were calculated using the logarithmic form of the binding equation (Equation (2)):log[(F0 − F)/F] = log Ka + n log[Q](2)
Thermodynamic parameters—Gibbs free energy change (ΔG°) (Equation (3)), enthalpy change (ΔH°), and entropy change (ΔS°)—were determined from the temperature dependence of the binding constant using the van’t Hoff equation (Equation (4)):ΔG° = ΔH° − TΔS°(3) ln Ka = −ΔH°/RT + ΔS°/R(4)

[4] = parameters: method as in doi:10.1039/C6RA20441D; settings: cited from earlier work
[5] = target: T1, bovine serum albumin (BSA); experiment: Surface plasmon resonance (SPR) analysis of albumin–morin interaction; format: binding
Protocol: Gold-coated sensor chips were first cleaned and subsequently modified with a self-assembled monolayer (SAM) of 4-mercaptobenzoic acid (4-MBA) to introduce carboxyl functional groups on the sensor surface.
Non-reacted sites were blocked with 1 M ethanolamine (pH 8.5).
Sensorgrams were recorded in real time, and binding responses were referenced against control channels and buffer-only injections.
Equilibrium binding data were analyzed using Langmuir isotherm models to estimate the apparent association constant (Ka), dissociation constant (Kd), and maximum binding response (Rmax). Data fitting and kinetic analysis were performed using the instrument’s integrated software suite.

[6] = Encapsulation efficiency in BSA nanoparticles (desolvation, HPLC of supernatant); format: physicochemical
Protocol: (§1) A high-performance liquid chromatography (HPLC) method was developed and validated to quantify morin for the subsequent evaluation of encapsulation efficiency, drug loading capacity, physicochemical stability, photodegradation under ultraviolet (UV) exposure, and hydroxyl radical scavenging activity. Chromatographic analyses were conducted using a Shimadzu LC-20AT HPLC system (Shimadzu, Kyoto, Japan), equipped with a SIL-20A autosampler and an SPD-M20A photodiode array (PDA) detector. Separation was achieved on a C18 ODS Hypersil column (250 mm × 4.6 mm, 5 μm particle size; Agilent Technologies, Santa Clara, CA, USA). The mobile phase consisted of acetonitrile and 0.1% trifluoroacetic acid in water (30:70, v/v), delivered under isocratic conditions at a flow rate of 1.0 mL/min. The injection volume was set at 20 μL. Morin detection was performed at a wavelength of 360 nm using the PDA detector. The method was optimized to ensure adequate peak resolution, retention time reproducibility, and sensitivity for low-concentration samples. This analytical approach was employed throughout the study to monitor morin concentration in various experimental settings, including nanoparticle formulations and stability assays.
The impact of other antioxidant molecules (ellagic acid and tocopherol succinate) on the behavior of morin encapsulated in BSA nanoparticles in an intestinal environment was assessed through in vitro loading and release experiments. […] Then, ethanol was added dropwise under constant stirring, followed by the addition of 20 µL of an 8% glutaraldehyde solution [25]. The final volume of the mixture was adjusted to 10 mL. After 24 h, the nanoparticles were collected by centrifugation (13,500 rpm, 20 min, and 25 °C) and washed with water. The supernatant was separated for further analysis. To incorporate ellagic acid or tocopherol succinate, each compound—either individually or in combination—was included in the ethanol phase during the dropwise addition. The rest of the procedure remained unchanged. The encapsulation efficiency (%EE) was calculated using Equation (5):(5) %EE=Mi−Mf/Mi×100 where Mi and Mf correspond to the initial amount of morin added during the loading process and the free morin in the supernatant, respectively.

[7] = Photolysis and photooxidation (hydroxyl radical from H2O2 under UV 254 nm) of morin, HPLC-DAD; format: physicochemical
Protocol: Morin was incorporated into the system by adding small aliquots of a stock solution in ethanol, ensuring the final ethanol concentration remained below 2% (v/v) to avoid solvent-induced effects on photoreactivity. Oxidative conditions were simulated by the addition of hydrogen peroxide to a final concentration of 0.5% (w/v), serving as a source of hydroxyl radicals upon UV activation. Each reaction mixture was vortexed to ensure homogeneity and subsequently transferred into 5 mL double-jacketed quartz cuvettes. The outer surface of each cuvette was coated with opaque black paint to prevent ambient light interference, except for a centrally located circular window (1 cm diameter) designed to permit focused irradiation. A circulating water bath maintained the cuvette temperature at 20 ± 0.5 °C. Photolysis was carried out using a high-power mercury UV lamp emitting at 254 nm. […] Quantitative analysis of morin degradation and spectral changes associated with hydroxyl radical attack was performed using high-performance liquid chromatography with diode array detection (HPLC-DAD) and UV–visible spectrophotometry.
as §1

[8] = target: T1, bovine serum albumin (BSA); experiment: Circular dichroism of BSA with morin under oxidative conditions; settings: morin 10 and 20 µM, UV irradiation and hydrogen peroxide
Protocol: Measurements were performed using a J-1500 CD spectropolarimeter (JASCO, Tokyo, Japan) equipped with a temperature-controlled cell holder maintained at 25 °C. Spectra were acquired using a 0.1 cm path length quartz cuvette. Each spectrum represents the average of three consecutive scans, recorded at a scanning speed of […] with a response time of 1 s. […] For oxidative conditions, hydrogen peroxide was added to a final concentration of 0.5% (w/v) to promote hydroxyl radical generation. All solutions were prepared in 10 mM phosphate buffer at pH 7.4 and allowed to equilibrate for 15 min before measurement. Spectra were corrected by subtracting the baseline of the corresponding buffer or hydrogen peroxide control solution.

[9] = tested on: human serum albumin (HSA); settings: fluorescence studies; cited from earlier work
[10] = BSA nanoparticles prepared via desolvation
[11] = BSA fluorescence quenching, 25 °C
[12] = flavonoid–BSA complex, van't Hoff analysis
[13] = read-out: binding constant (Ka) (converted)

T1 sequence (P02769 25-607): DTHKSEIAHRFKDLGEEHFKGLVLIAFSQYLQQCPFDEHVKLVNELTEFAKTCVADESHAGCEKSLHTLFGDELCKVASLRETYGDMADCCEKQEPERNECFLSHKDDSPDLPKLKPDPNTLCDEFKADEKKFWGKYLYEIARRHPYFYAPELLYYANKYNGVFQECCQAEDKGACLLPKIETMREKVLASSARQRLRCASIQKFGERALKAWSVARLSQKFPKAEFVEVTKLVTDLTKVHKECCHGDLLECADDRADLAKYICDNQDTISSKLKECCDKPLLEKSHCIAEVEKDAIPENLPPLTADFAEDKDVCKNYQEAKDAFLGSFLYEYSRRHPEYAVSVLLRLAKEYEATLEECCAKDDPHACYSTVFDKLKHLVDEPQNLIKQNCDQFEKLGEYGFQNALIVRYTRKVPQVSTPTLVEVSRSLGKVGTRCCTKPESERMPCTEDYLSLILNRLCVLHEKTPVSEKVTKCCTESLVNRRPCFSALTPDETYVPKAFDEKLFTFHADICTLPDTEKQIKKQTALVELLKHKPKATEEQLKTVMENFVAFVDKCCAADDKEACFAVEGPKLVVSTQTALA

- Kd [3]: 11.4 µM
- number of binding sites (n) ([3]; BSA fluorescence quenching): 1.22 ± 0.04
- bimolecular quenching rate constant (kq) [3, 11]: 8.11 × 10^12 ± 0.04 L mol^−1 s^−1
- Stern–Volmer quenching constant (Ksv) [3, 11]: 8.11 × 10^4 ± 0.02 L mol^−1
Structure (SMILES): O=c1c(-c2ccc(O)cc2)coc2cc(O)cc(O)c12 [genistein]

- number of binding sites (n) ([3]; BSA fluorescence quenching): 0.94 ± 0.01
- bimolecular quenching rate constant (kq) [3, 11]: 3.66 × 10^12 ± 0.04 L mol^−1 s^−1
- Stern–Volmer quenching constant (Ksv) [3, 11]: 3.66 × 10^4 ± 0.05 L mol^−1
- ΔG° [3, 12]: –26.9 kJ·mol^−1
- Kd [3, 13]: 29.5 µM
Structure (SMILES): O=c1c(-c2ccc(O)cc2)coc2cc(O[C@@H]3O[C@H](CO)[C@@H](O)[C@H](O)[C@H]3O)cc(O)c12 [genistin]

- number of binding sites (n) ([3]; BSA fluorescence quenching): 1.33 ± 0.03
- bimolecular quenching rate constant (kq) [3, 11]: 2.23 × 10^13 ± 0.02 L mol^−1 s^−1
- Stern–Volmer quenching constant (Ksv) [3, 11]: 2.23 × 10^5 ± 0.03 L mol^−1
- Kd [3, 13]: 5.99 µM
Structure (SMILES): O=c1c(O)c(-c2ccc(O)cc2)oc2cc(O)cc(O)c12 [kaempferol]

- number of binding sites (n) ([3]; BSA fluorescence quenching): 1.13 ± 0.02
- bimolecular quenching rate constant (kq) [3, 11]: 1.88 × 10^13 ±0.03 L mol^−1 s^−1
- Stern–Volmer quenching constant (Ksv) [3, 11]: 1.88 × 10^5 ± 0.02 L mol^−1
Structure (SMILES): O=c1c(O)c(-c2ccc(O)c(O)c2)oc2cc(O)cc(O)c12 [quercetin]

The next lines start with the compound.

Structure (SMILES): O=c1oc2cc(O)ccc2c2oc3cc(O)ccc3c12 [coumestrol]
- encapsulation efficiency of coumestrol [1]: 22.4% ± 0.1%
- encapsulation efficiency in BSA nanoparticles ([2]; previous studies): 22.4% ± 0.1%

Structure (SMILES): O=c1c(O)c(-c2ccc(O)c(O)c2)oc2cc(O)ccc12 [fisetin]
- average particle size [2, 10]: 200 ± 8 nm
- encapsulation efficiency [2, 10]: 84%

Structure (SMILES): O=c1c(O)c(-c2ccc(O)cc2O)oc2cc(O)cc(O)c12 [morin, 3,5,7,2′,4′-pentahydroxyflavone]
- extended release ([4]; 72 h, pH 7.4): up to 80%
- initial 6 h release ([4]; stated for both this study (SIF) and the literature study (pH 7.4)): < 40%
- Kd [5]: 285 µM
- %EE of morin ([6]; BSA nanoparticles co-loaded with both ellagic acid and tocopherol succinate): 80%
- %EE of morin ([6]; BSA nanoparticles co-loaded with ellagic acid): 76%
- %EE of morin ([6]; BSA nanoparticles co-loaded with tocopherol succinate): 72.6%
- %EE of morin ([6]; encapsulated alone in BSA nanoparticles (comparison with coumestrol co-loading)): 20.5% ± 3.0%
- %EE ([6]; initial [Morin] 0.128 mM): 25.97 ± 4.29%
- Morin/BSA molar ratio ([6]; initial [Morin] 0.128 mM): 0.30 ± 0.05
- %EE ([6]; initial [Morin] 0.222 mM): 20.42 ± 0.67%
- Morin/BSA molar ratio ([6]; initial [Morin] 0.222 mM): 0.48 ± 0.02
- %EE ([6]; initial [Morin] 0.308 mM): 19.31 ± 0.42%
- Morin/BSA molar ratio ([6]; initial [Morin] 0.308 mM): 0.68 ± 0.01
- %EE ([6]; initial [Morin] 0.507 mM): 20.99 ± 0.27%
- Morin/BSA molar ratio ([6]; initial [Morin] 0.507 mM): 0.98 ± 0.01
- Morin/BSA molar ratio ([6]; initial [Morin] 0.634 mM): 1.01 ± 0.04
- %EE ([6]; initial [Morin] 1.478 mM): 18.94 ± 0.85%
- Morin/BSA molar ratio ([6]; initial [Morin] 1.478 mM): 1.48 ± 0.07
- encapsulation efficiencies (maximum) ([6]; morin in BSA nanoparticles prepared by desolvation): up to 26%
- Kd [3]: 5.35 µM
- number of binding sites (n) ([3]; BSA fluorescence quenching): 1.10 ± 0.02
- bimolecular quenching rate constant (kq) [3, 11]: 1.76 × 10^13 ± 0.02 L mol^−1 s^−1
- binding constant (Ka) [3, 11]: 187000 L/mol
- Stern–Volmer quenching constant (Ksv) [3, 11]: 1.76 × 10^5 ± 0.03 L mol^−1
- ΔH° [3, 12]: –28.7 kJ·mol^−1
- ΔS° [3, 12]: 4.75 J·mol^−1·K^−1
- ΔG° [3, 12]: approximately –30.1 kJ·mol^−1
- initial morin concentration retained ([7]; UV exposure with hydrogen peroxide, 10 min, 2 µM BSA, pH 7.4): 79%
- morin concentration remaining ([7]; UV exposure with hydrogen peroxide, 10 min, absence of BSA, pH 7.4): 61.5%
- initial morin concentration remaining ([7]; UV photolysis, 10 min, absence of BSA, phosphate buffer pH 7.4): 94.9%
- improvement in morin retention compared to the system without BSA ([7]; photooxidation 10 min, 2 µM BSA): 17.5%
- effect on BSA secondary structure (CD ellipticity at 208 and 222 nm) [8]: no significant loss of α-helical structure

Structure (SMILES): O=C(/C=C/c1ccc(O)c(O)c1)O[C@H](Cc1ccc(O)c(O)c1)C(=O)O [rosmarinic acid]
- association constant (K) [9]: ~10^7 M^−1
